Measurements taken from ChEMBL document CHEMBL1154671, “Isoquinoline-based analogs of the cancer drug clinical candidate tipifarnib as anti-Trypanosoma cruzi agents” (Bioorg Med Chem Lett, 2009).

test system: Trypanosoma cruzi; experiment: Antitrypanosomal activity against Trypanosoma cruzi Tulahuen infected in mouse 3T3 cells; assay type: functional, organism-based; conditions: NIH3T3

Row | SMILES | EC50 [nM]
1 | CC[C@@H]([C@H](C)O)n1ncn(-c2ccc(N3CCN(c4ccc(OC[C@@H]5CO[C@@](Cn6cncn6)(c6ccc(F)cc6F)C5)cc4)CC3)cc2)c1=O [POSACONAZOLE] | 0.3
2 | Cn1cncc1[C@@](N)(c1ccc(Cl)cc1)c1ccc2c(c1)c(-c1cccc(Cl)c1)cc(=O)n2C [TIPIFARNIB] | 4

The remaining lines, values ahead:

Row | EC50 [nM] | SMILES
3 | 120 | COC(c1ccc(Cl)cc1)(c1ccc2cnccc2c1)c1cncn1C (stereo not given)
4 | 0.9 | COC(c1ccc(Cl)cc1)(c1ccc2cncc(-c3c(F)cccc3F)c2c1)c1cncn1C (stereo not given)
5 | 0.5 | COC(c1ccc(Cl)cc1)(c1ccc2cncc(-c3cccc(Cl)c3)c2c1)c1cncn1C (stereo not given)
